pKd: −log10 of the molar value. Bridge positions count the residues as written; N and C are the ends. Square brackets hold non-standard residues; d marks the D form. Peptide text beside a SMILES is read from it. I, II: the chains in the order shown. Nva(3-Et) = CCC(CC)[C@H](N)C(=O)O; Cha = N[C@@H](CC1CCCCC1)C(=O)O; Cba = N[C@@H](CC1CCC1)C(=O)O
Tests used:
Frizzled-7 [1] = biological target: T1, Frizzled-7 (Homo sapiens, UniProt O75084); assay type: cell-based; details: cho
Frizzled-7 [2] = biological target: T1, Frizzled-7; experiment: biochemical; assay type: cell-based, CHO; details: read-out: Kd
Frizzled-7 [3] = biological target: T1, Frizzled-7; details: CHO
Description: Binding affinity to recombinant human Frizzled-7 (Gln33 to Leu185 residues)/human IgG1 chimeric protein expressed in CHO cells assessed as association rate constant by SPR assay

## CSCC[C@H](NC(=O)[C@@H](NC(=O)[C@H](Cc1cnc[nH]1)NC(=O)[C@H](CSSC[C@H](NC(=O)[C@H](Cc1c[nH]c2ccccc12)NC(=O)[C@H](Cc1ccccc1)NC(=O)[C@H](CCC(=O)O)NC(=O)[C@H](CC1CCCCC1)NC(=O)[C@H](CC(=O)O)NC(=O)[C@H](CC(=O)O)NC(=O)[C@H](CO)NC(C)=O)C(=O)N[C@@H](Cc1cnc[nH]1)C(=O)N[C@H](C(=O)N[C@@H](CCSC)C(=O)N[C@@H](Cc1ccc(O)cc1)C(N)=O)C(C)C)NC(=O)[C@H](Cc1c[nH]c2ccccc12)NC(=O)[C@H](Cc1ccccc1)NC(=O)[C@H](CCC(=O)O)NC(=O)[C@H](CC1CCCCC1)NC(=O)[C@H](CC(=O)O)NC(=O)[C@H](CC(=O)O)NC(=O)[C@H](CO)NC(C)=O)C(C)C)C(=O)N[C@@H](Cc1ccc(O)cc1)C(N)=O (I: Ac-SDD[Cha]EFWCHVMY-NH2 / II: Ac-SDD[Cha]EFWCHVMY-NH2; disulfide I:8-II:8)
Frizzled-7 [1]
  Kd: 75.1 ×10⁻³ /s
Frizzled-7 [2]
  pKd: 7.86
Frizzled-7 [3]
  Ka: 56.7 ×10⁵ /M/s

## CSCC[C@H](NC(=O)[C@@H](NC(=O)[C@H](Cc1cnc[nH]1)NC(=O)[C@H](CSSC[C@H](NC(=O)[C@H](Cc1c[nH]c2ccccc12)NC(=O)[C@H](CC(C)C)NC(=O)[C@H](CCCCN)NC(=O)[C@H](CC(C)C)NC(=O)[C@H](CC(=O)O)NC(=O)[C@H](CC(=O)O)NC(=O)[C@H](CO)NC(C)=O)C(=O)N[C@@H](Cc1cnc[nH]1)C(=O)N[C@H](C(=O)N[C@@H](CCSC)C(=O)N[C@@H](Cc1ccc(O)cc1)C(N)=O)C(C)C)NC(=O)[C@H](Cc1c[nH]c2ccccc12)NC(=O)[C@H](CC(C)C)NC(=O)[C@H](CCCCN)NC(=O)[C@H](CC(C)C)NC(=O)[C@H](CC(=O)O)NC(=O)[C@H](CC(=O)O)NC(=O)[C@H](CO)NC(C)=O)C(C)C)C(=O)N[C@@H](Cc1ccc(O)cc1)C(N)=O (I: Ac-SDDLKLWCHVMY-NH2 / II: Ac-SDDLKLWCHVMY-NH2; disulfide I:8-II:8)
Frizzled-7 [1]
  Kd: 0.58 ×10⁻³ /s
Frizzled-7 [2]
  pKd: 9.85
Frizzled-7 [3]
  Ka: 55.6 ×10⁵ /M/s

## CSCC[C@H](NC(=O)[C@@H](CC1CC1)NC(=O)[C@H](Cc1cnc[nH]1)NC(=O)[C@H](CSSC[C@H](NC(=O)[C@H](Cc1c[nH]c2ccccc12)NC(=O)[C@H](Cc1ccccc1)NC(=O)[C@H](CCC(=O)O)NC(=O)[C@H](CC(C)C)NC(=O)[C@H](CC(=O)O)NC(=O)[C@H](CC(=O)O)NC(=O)[C@H](CO)NC(C)=O)C(=O)N[C@@H](Cc1cnc[nH]1)C(=O)N[C@H](CC1CC1)C(=O)N[C@@H](CCSC)C(=O)N[C@@H](Cc1ccc(O)cc1)C(N)=O)NC(=O)[C@H](Cc1c[nH]c2ccccc12)NC(=O)[C@H](Cc1ccccc1)NC(=O)[C@H](CCC(=O)O)NC(=O)[C@H](CC(C)C)NC(=O)[C@H](CC(=O)O)NC(=O)[C@H](CC(=O)O)NC(=O)[C@H](CO)NC(C)=O)C(=O)N[C@@H](Cc1ccc(O)cc1)C(N)=O
Frizzled-7 [1]
  Kd: 1.26 ×10⁻³ /s
Frizzled-7 [2]; cho
  pKd: 9.80
Frizzled-7 [3]
  Ka: 80.4 ×10⁵ /M/s

## CCC(CC)[C@H](NC(=O)[C@H](CC(=O)O)NC(=O)[C@H](CC(=O)O)NC(=O)[C@H](CO)NC(C)=O)C(=O)N[C@@H](CCC(=O)O)C(=O)N[C@@H](Cc1ccccc1)C(=O)N[C@@H](Cc1c[nH]c2ccccc12)C(=O)N[C@@H](CSSC[C@H](NC(=O)[C@H](Cc1c[nH]c2ccccc12)NC(=O)[C@H](Cc1ccccc1)NC(=O)[C@H](CCC(=O)O)NC(=O)[C@@H](NC(=O)[C@H](CC(=O)O)NC(=O)[C@H](CC(=O)O)NC(=O)[C@H](CO)NC(C)=O)C(CC)CC)C(=O)N[C@@H](Cc1cnc[nH]1)C(=O)N[C@H](C(=O)N[C@@H](CCSC)C(=O)N[C@@H](Cc1ccc(O)cc1)C(N)=O)C(C)C)C(=O)N[C@@H](Cc1cnc[nH]1)C(=O)N[C@H](C(=O)N[C@@H](CCSC)C(=O)N[C@@H](Cc1ccc(O)cc1)C(N)=O)C(C)C (I: Ac-SDD[Nva(3-Et)]EFWCHVMY-NH2 / II: Ac-SDD[Nva(3-Et)]EFWCHVMY-NH2; disulfide I:8-II:8)
Frizzled-7 [1]
  Kd: 29.2 ×10⁻³ /s
Frizzled-7 [2]
  pKd: 8.41
Frizzled-7 [3]
  Ka: 73.6 ×10⁵ /M/s

## CSCC[C@H](NC(=O)[C@@H](NC(=O)[C@H](Cc1cnc[nH]1)NC(=O)[C@H](CSSC[C@H](NC(=O)[C@H](Cc1c[nH]c2ccccc12)NC(=O)[C@H](Cc1ccccc1)NC(=O)[C@H](CCCCN)NC(=O)[C@H](CC(C)C)NC(=O)[C@H](CC(=O)O)NC(=O)[C@H](CC(=O)O)NC(=O)[C@H](CO)NC(C)=O)C(=O)N[C@@H](Cc1cnc[nH]1)C(=O)N[C@H](C(=O)N[C@@H](CCSC)C(=O)N[C@@H](Cc1ccc(O)cc1)C(N)=O)C(C)C)NC(=O)[C@H](Cc1c[nH]c2ccccc12)NC(=O)[C@H](Cc1ccccc1)NC(=O)[C@H](CCCCN)NC(=O)[C@H](CC(C)C)NC(=O)[C@H](CC(=O)O)NC(=O)[C@H](CC(=O)O)NC(=O)[C@H](CO)NC(C)=O)C(C)C)C(=O)N[C@@H](Cc1ccc(O)cc1)C(N)=O (I: Ac-SDDLKFWCHVMY-NH2 / II: Ac-SDDLKFWCHVMY-NH2; disulfide I:8-II:8)
Frizzled-7 [1]
  Kd: 1.33 ×10⁻³ /s
Frizzled-7 [2]
  pKd: 9.80
Frizzled-7 [3]
  Ka: 85.6 ×10⁵ /M/s

## CSCC[C@H](NC(=O)[C@@H](NC(=O)[C@H](Cc1cnc[nH]1)NC(=O)[C@H](CSSC[C@H](NC(=O)[C@H](Cc1c[nH]c2ccccc12)NC(=O)[C@H](Cc1ccccc1)NC(=O)[C@H](CCC(=O)O)NC(=O)[C@H](CC1CCC1)NC(=O)[C@H](CC(=O)O)NC(=O)[C@H](CC(=O)O)NC(=O)[C@H](CO)NC(C)=O)C(=O)N[C@@H](Cc1cnc[nH]1)C(=O)N[C@H](C(=O)N[C@@H](CCSC)C(=O)N[C@@H](Cc1ccc(O)cc1)C(N)=O)C(C)C)NC(=O)[C@H](Cc1c[nH]c2ccccc12)NC(=O)[C@H](Cc1ccccc1)NC(=O)[C@H](CCC(=O)O)NC(=O)[C@H](CC1CCC1)NC(=O)[C@H](CC(=O)O)NC(=O)[C@H](CC(=O)O)NC(=O)[C@H](CO)NC(C)=O)C(C)C)C(=O)N[C@@H](Cc1ccc(O)cc1)C(N)=O (I: Ac-SDD[Cba]EFWCHVMY-NH2 / II: Ac-SDD[Cba]EFWCHVMY-NH2; disulfide I:8-II:8)
Frizzled-7 [1]
  Kd: 9.7 ×10⁻³ /s
Frizzled-7 [2]
  pKd: 7.69
Frizzled-7 [3]
  Ka: 4.6 ×10⁵ /M/s

## CSCC[C@H](NC(=O)[C@@H](NC(=O)[C@H](Cc1cnc[nH]1)NC(=O)[C@H](CSSC[C@H](NC(=O)[C@H](Cc1c[nH]c2ccccc12)NC(=O)[C@H](Cc1ccccc1)NC(=O)[C@H](CCC(=O)O)NC(=O)[C@H](Cc1ccccc1)NC(=O)[C@H](CC(=O)O)NC(=O)[C@H](CC(=O)O)NC(=O)[C@H](CO)NC(C)=O)C(=O)N[C@@H](Cc1cnc[nH]1)C(=O)N[C@H](C(=O)N[C@@H](CCSC)C(=O)N[C@@H](Cc1ccc(O)cc1)C(N)=O)C(C)C)NC(=O)[C@H](Cc1c[nH]c2ccccc12)NC(=O)[C@H](Cc1ccccc1)NC(=O)[C@H](CCC(=O)O)NC(=O)[C@H](Cc1ccccc1)NC(=O)[C@H](CC(=O)O)NC(=O)[C@H](CC(=O)O)NC(=O)[C@H](CO)NC(C)=O)C(C)C)C(=O)N[C@@H](Cc1ccc(O)cc1)C(N)=O (I: Ac-SDDFEFWCHVMY-NH2 / II: Ac-SDDFEFWCHVMY-NH2; disulfide I:8-II:8)
Frizzled-7 [1]
  Kd: 62.8 ×10⁻³ /s
Frizzled-7 [2]
  pKd: 6.92
Frizzled-7 [3]
  Ka: 5.3 ×10⁵ /M/s

Source: ChEMBL document CHEMBL4373723 (J Med Chem, 2019)
